Assay results: the Kinase Knowledgebase extract (Sharma et al. 2016)

Columns and labels:
EGFR (human) [1] = molecular target: EGFR (human) (UniProt P00533)
EGFR (human) [2] = molecular target: EGFR (human) (UniProt P00533); conditions: hn5

Sequence of EGFR (human) (P00533 whole entry, looked up): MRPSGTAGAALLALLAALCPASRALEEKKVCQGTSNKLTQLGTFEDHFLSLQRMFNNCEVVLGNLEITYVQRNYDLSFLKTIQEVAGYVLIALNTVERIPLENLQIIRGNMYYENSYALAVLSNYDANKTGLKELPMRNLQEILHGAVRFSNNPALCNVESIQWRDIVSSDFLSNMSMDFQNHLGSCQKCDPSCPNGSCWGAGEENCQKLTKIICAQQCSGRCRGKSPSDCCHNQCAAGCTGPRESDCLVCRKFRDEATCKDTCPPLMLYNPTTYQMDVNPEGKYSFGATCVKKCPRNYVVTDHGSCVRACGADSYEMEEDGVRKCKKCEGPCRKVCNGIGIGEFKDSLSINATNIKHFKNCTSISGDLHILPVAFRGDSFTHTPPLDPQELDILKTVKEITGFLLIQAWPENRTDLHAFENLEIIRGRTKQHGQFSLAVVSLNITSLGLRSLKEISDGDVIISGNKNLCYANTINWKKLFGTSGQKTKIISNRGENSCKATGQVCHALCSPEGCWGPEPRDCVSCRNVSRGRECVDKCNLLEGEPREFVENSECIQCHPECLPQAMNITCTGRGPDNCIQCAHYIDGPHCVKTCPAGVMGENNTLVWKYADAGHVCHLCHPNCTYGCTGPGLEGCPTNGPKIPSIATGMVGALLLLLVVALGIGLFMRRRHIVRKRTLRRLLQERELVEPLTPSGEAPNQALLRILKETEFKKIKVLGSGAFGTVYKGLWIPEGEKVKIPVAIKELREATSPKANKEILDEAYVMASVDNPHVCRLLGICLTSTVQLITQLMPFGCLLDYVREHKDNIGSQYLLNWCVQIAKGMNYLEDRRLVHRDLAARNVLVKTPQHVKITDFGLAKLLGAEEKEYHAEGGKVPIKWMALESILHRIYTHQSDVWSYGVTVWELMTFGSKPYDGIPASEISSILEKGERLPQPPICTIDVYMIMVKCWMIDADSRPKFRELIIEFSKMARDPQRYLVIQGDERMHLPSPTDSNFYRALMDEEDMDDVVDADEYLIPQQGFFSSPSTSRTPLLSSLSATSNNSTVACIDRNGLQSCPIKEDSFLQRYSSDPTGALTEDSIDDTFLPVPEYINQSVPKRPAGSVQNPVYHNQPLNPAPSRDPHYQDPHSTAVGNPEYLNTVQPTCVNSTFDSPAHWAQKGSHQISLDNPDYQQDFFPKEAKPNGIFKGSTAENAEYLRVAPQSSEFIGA

Cc1nnc(-c2ccc3ncnc(Nc4ccc5c(cnn5Cc5cccc(F)c5)c4)c3c2)o1
IC50 (EGFR (human) [1]): 26 nM | IC50 (EGFR (human) [2]): 830 nM

CN(CCO)c1cc2c(Nc3ccc4c(cnn4Cc4ccccc4)c3)ncnc2cn1
IC50 (EGFR (human) [1]): 36 nM | IC50 (EGFR (human) [2]): 300 nM

CS(=O)(=O)CCNCc1ccc(-c2cc3c(Nc4ccc(OCc5ccccc5)cc4)ncnc3cn2)o1
IC50 (EGFR (human) [1]): 25 nM | IC50 (EGFR (human) [2]): 430 nM

CS(=O)(=O)CCNCc1ccc(-c2ccc3ncnc(Nc4ccc(S(=O)(=O)c5ccccc5)cc4)c3c2)o1
IC50 (EGFR (human) [1]): 29 nM | IC50 (EGFR (human) [2]): 1130 nM
